Test results reported in the SangsterLogP compilation.

SMILES | logP
CN(N=O)C(N)=O | -0.03
CCOC(=O)c1ccccn1 | 0.87
CC(C)C[C@H](N)C(=O)O | -1.52
Nc1nc(N)c2ncn([C@H]3C[C@H](O)[C@@H](CO)O3)c2n1 | -0.52
C1CCNC1 | 0.46
COC(=O)C(C#N)=NNc1cccc(Cl)c1 | 3.6
COc1cccc(C=O)c1O | 1.37
CCCSc1nnc(C(C)C)c(=O)n1N | 2.12
COC | 0.1
Nc1nc(N)c2nc(-c3ccccc3)c(N)nc2n1 | 0.98
Clc1ccc(Cl)cc1 | 3.44
NS(=O)(=O)c1cc2c(cc1Cl)N=CNS2(=O)=O | -0.24
CF | 0.51
O=C1CC(=O)NC(=O)N1 | -1.47
CCn1cc(C(=O)O)c(=O)c2ccc(C)nc21 | 1.59
O=[N+]([O-])/C=C/c1ccoc1 | 1.41
Nc1nc2c(ncn2[C@H]2C[C@H](O)[C@@H](CO)O2)c(=O)[nH]1 | -1.3
CC(C)NC(=O)C=Cc1ccc([N+](=O)[O-])o1 | 1.34
CCCCN(CCCC)N=O | 2.63
CN1CC[C@]23c4c5ccc(O)c4O[C@H]2C(=O)CC[C@@]3(O)[C@H]1C5 | 0.83
CNS(=O)(=O)c1ccc(N)cc1 | -0.01
O=[N+]([O-])c1ccc(Br)cc1 | 2.55
Cc1ccc2cccc(C)c2c1 | 4.44

SMILES | logP
O=C1C=CC(=O)C=C1 | 0.2
CC(=O)C(C#N)=NNc1ccc(Cl)c(Cl)c1 | 4.56
CCNC | 0.15
Cc1cc(C)c(C)cc1C | 4
N#Cc1ccccc1 | 1.56
CC(=O)CC(C)=O | 0.4
Oc1cccc2cccnc12 | 2.02
O=C(O)COc1cccc(Br)c1 | 2.22
CCN1CCCC1CNC(=O)c1cc(S(=O)(=O)CC)ccc1OC (centres undefined) | 1.06
CCC(C)=O | 0.29
Oc1ccc(O)cc1 | 0.59
O=C(O)COC1Cc2ccccc2C1 | 2.33
OCC(O)CO | -1.76
CCC(C)n1nnc2ccccc21 (centres undefined) | 2.31
N#Cc1ccc(S(N)(=O)=O)cc1 | 0.23
COC(=O)C(C#N)=NNc1cccc(C(F)(F)F)c1 | 3.78
Nc1ccc2cc3ccccc3nc2c1 | 2.77
CN(C)C(=O)Nc1ccccc1 | 0.98
Nc1cccnc1 | 0.11
CCCCNCCCC | 2.83
CC(=O)Nc1ccccc1C(=O)O | 1.88
NC(=O)CCCn1nnc2ccccc21 | 0.37
CCCc1cc(NC(C)=O)cc(CCC)c1O | 3.16

SMILES | logP
CC(C)(c1ccc(O)cc1)c1ccc(O)cc1 | 3.32
COc1ccccc1C(N)=O | 0.86
CCc1cccc2ccccc12 | 4.4
COC(=O)C(C#N)=NNc1ccccc1C(F)(F)F | 3.7
CCCCCl | 2.64
Cc1cc2ccccc2[nH]1 | 2.53
NC(=O)CCCCc1ccccn1 | 0.38
CSc1nnc(C)c(=O)n1N | -0.16
[O-][n+]1cccc2ccccc21 | 0.36
CN(C)CCC(c1ccc(Cl)cc1)c1ccccn1 (centres undefined) | 3.38
CCc1ccccc1N | 1.74
O=CNc1ccccc1 | 1.15
Cc1cc([N+](=O)[O-])c2ccccc2[n+]1[O-] | 1.25
c1cnccn1 | -0.26
c1ccc(Nc2ccccc2)cc1 | 3.5
Cn1cnc([N+](=O)[O-])c1Sc1ncnc2nc[nH]c12 | 0.1
NS(=O)(=O)c1cccc2cccnc12 | 0.42
CNC(=O)Oc1cccc(C)c1 | 1.7
C1CNCCN1 | -1.5
Nc1ccc(C(=O)O)cc1Cl | 1.52
CCc1ccccc1C | 3.53
O=[N+]([O-])c1cccc2cccnc12 | 1.4
CCCNCC(C)C | 2.07

SMILES | logP
CNC(=O)Oc1ccc(I)cc1 | 2.46
[O-][n+]1ccc(Cl)c2ccccc21 | 1.08
N#Cc1ccc(/C=C/NC=O)cc1 | 1.62
O=C(NC(CO)C(O)c1ccc([N+](=O)[O-])cc1)C(Br)(Br)Br (centres undefined) | 2.17
C1CO1 | -0.3
CC(=O)OCC1=C(C(=O)O)N2C(=O)[C@@H](NC(=O)Cc3cccs3)[C@H]2SC1 | 0
CC(=O)c1ccccn1 | 0.85
N#CCc1ccccc1 | 1.56
Cc1ccc2cc(C)ccc2c1 | 4.31
Clc1ccccc1 | 2.84
O=c1ccn(C2C=CC(CO)O2)c(=O)[nH]1 (centres undefined) | -1.07
COc1cc(CCN)cc(OC)c1OC | 0.78
CCN(CC)N=O | 0.48
CCN(CC)CCNC(=O)c1ccc(N)cc1 | 0.88
COc1ccccc1CO | 1.13
Cc1ccc2c([N+](=O)[O-])cc[n+]([O-])c2c1 | 1.42
Brc1ccc2ncccc2c1 | 2.83
Nc1ccccn1 | 0.48
N#Cc1ccccn1 | 0.45
CC1=c2[nH]c3c(c2CCN1)C=CC(=O)C=3 | 2.19
